Read-outs that look alike come from different tables or passages of the source.
How the values were obtained:
[1] = tested on: Mycosphaerella graminicola; Anamorph: Septoria tritici; assay: Leaf Blotch of Wheat (SEPTTR) fungicidal activity on wheat seedlings; type: in vivo; details: Zymoseptoria tritici; for pest or weed control at 121.5 g/ha: Low Volume, 121.5 g/H
Method: Example A: Evaluation of Fungicidal Activity: Leaf Blotch of Wheat (Mycosphaerella graminicola; Anamorph: Septoria tritici; Bayer code […]): Technical grades of materials were dissolved in acetone, which were then mixed with nine volumes of water (H2O) containing 110 ppm Triton X-100. The fungicide solutions were applied onto wheat seedlings using an automated booth sprayer to run-off. All sprayed plants were allowed to air dry prior to further handling. All fungicides were evaluated using the aforementioned method for their activity vs. all target diseases, unless stated otherwise. Wheat leaf blotch and brown rust activity were also evaluated using track spray applications, in which case the fungicides were formulated as EC formulations, containing 0.1% Trycol 5941 in the spray solutions. Wheat plants (variety Yuma) were grown from seed in a greenhouse in 50% mineral soil/50% soil-less Metro mix until the first leaf was fully emerged, with 7-10 seedlings per pot. These plants were inoculated with an aqueous spore suspension of Septoria tritici either prior to or after fungicide treatments. After inoculation the plants were kept in 100% relative humidity (one day in a dark dew chamber followed by two to three days in a lighted dew chamber at 20° C.) to permit spores to germinate and infect the leaf. The plants were then transferred to a greenhouse set at 20° C. for disease to develop. When disease symptoms were fully expressed on the 1st leaves of untreated plants, infection levels were assessed on a scale of 0 to 100 percent disease severity. Percent disease control was calculated using the ratio of disease severity on treated plants relative to untreated plants.

[2] = tested on: Puccinia triticina; Synonym: Puccinia recondita f sp. tritici; assay: Wheat Brown Rust (PUCCRT) fungicidal activity on wheat seedlings; type: in vivo; details: High Volume, 100 ppm
Method: Technical grades of materials were dissolved in acetone, which were then mixed with nine volumes of water (H2O) containing 110 ppm Triton X-100. The fungicide solutions were applied onto wheat seedlings using an automated booth sprayer to run-off. All sprayed plants were allowed to air dry prior to further handling. All fungicides were evaluated using the aforementioned method for their activity vs. all target diseases, unless stated otherwise. Wheat leaf blotch and brown rust activity were also evaluated using track spray applications, in which case the fungicides were formulated as EC formulations, containing 0.1% Trycol 5941 in the spray solutions. Wheat plants (variety Yuma) were grown from seed in a greenhouse in 50% mineral soil/50% soil-less Metro mix until the first leaf was fully emerged, with 7-10 seedlings per pot. These plants were inoculated with an aqueous spore suspension of Septoria tritici either prior to or after fungicide treatments. After inoculation the plants were kept in 100% relative humidity (one day in a dark dew chamber followed by two to three days in a lighted dew chamber at 20° C.) to permit spores to germinate and infect the leaf. The plants were then transferred to a greenhouse set at 20° C. for disease to develop. When disease symptoms were fully expressed on the 1st leaves of untreated plants, infection levels were assessed on a scale of 0 to 100 percent disease severity. Percent disease control was calculated using the ratio of disease severity on treated plants relative to untreated plants. Example B: Evaluation of Fungicidal Activity: Wheat Brown Rust (Puccinia triticina; Synonym: Puccinia recondita f sp. tritici; Bayer code PUCCRT): Wheat plants (variety Yuma) were grown from seed in a greenhouse in 50% mineral soil/50% soil-less Metro mix until the first leaf was fully emerged, with 7-10 seedlings per pot. These plants were inoculated with an aqueous spore suspension of Puccinia triticina either prior to or after fungicide treatments. After inoculation the plants were kept in a dark dew room at 22° C. with 100% relative humidity overnight to permit spores to germinate and infect the leaf. The plants were then transferred to a greenhouse set at 24° C. for disease to develop. Fungicide formulation, application and disease assessment followed the procedures as described in the Example A.

[3] = 24 h, 1 Day Protectant, read-out: PUCCRT 1DP disease control
[4] = 72 h, 3 Day Curative, read-out: PUCCRT 3DC disease control
[5] = 24 h, High Volume, 100 ppm, 1 Day Protectant, read-out: SEPTTR 1DP disease control
[6] = 72 h, High Volume, 100 ppm, 3 Day Curative, read-out: SEPTTR 3DC disease control
[7] = 24 h, 1 Day Protectant, read-out: SEPTTR 1DP disease control
[8] = 72 h, 3 Day Curative, read-out: SEPTTR 3DC disease control

| Structure (SMILES) | pest or weed control at 100 ppm [2, 3] [%] | pest or weed control at 100 ppm [2, 4] [%] | pest or weed control at 100 ppm [1, 5] [%] | pest or weed control at 100 ppm [1, 6] [%] | pest or weed control at 121.5 g/ha [1, 7] [%] | other results |
| --- | --- | --- | --- | --- | --- | --- |
| COc1ccnc(C(=O)N[C@@H](C)C(=O)O[C@@H](C)C(c2ccccc2)c2ccccc2)c1O [Cmpd 90, (S)-(S)-1,1-diphenylpropan-2-yl 2-(3-hydroxy-4-methoxypicolinamido)propanoate] | > 80 | > 80 | – | – | – | pest or weed control at 100 ppm ([1]; 24 h, read-out: SEPTTR 1DP disease control): > 80%; pest or weed control at 100 ppm ([1]; 72 h, read-out: SEPTTR 3DC disease control): > 80% |
| COc1ccnc(C(=O)N[C@@H](C)C(=O)O[C@@H](C)C(c2cccs2)c2cccs2)c1O [Cmpd 91] | > 80 | < 80 | > 80 | – | – | – |
| COc1ccnc(C(=O)N[C@@H](C)C(=O)O[C@@H](C)C(c2ccc(F)cc2)c2ccc(F)cc2)c1O [Cmpd 92] | > 80 | > 80 | > 80 | > 80 | – | – |
| CCOC(c1ccccc1)(c1ccccc1)[C@H](C)OC(=O)[C@H](C)NC(=O)c1nccc(OC)c1O [Cmpd 93] | < 80 | – | > 80 | < 80 | – | – |
| COc1ccnc(C(=O)N[C@@H](C)C(=O)O[C@@H](C)C(c2ccc(F)cc2F)c2ccc(F)cc2F)c1O [Cmpd 96] | > 80 | > 80 | > 80 | > 80 | – | – |
| COc1ccnc(C(=O)N[C@@H](C)C(=O)O[C@@H](C)C(F)(c2ccccc2)c2ccccc2)c1O [Cmpd 97] | < 80 | – | > 80 | > 80 | – | – |
| COc1ccc(C(c2ccc(OC)cc2)[C@H](C)OC(=O)[C@H](C)NC(=O)c2nccc(OC)c2O)cc1 [Cmpd 98] | > 80 | > 80 | > 80 | > 80 | – | – |
| COc1ccnc(C(=O)N[C@@H](C)C(=O)O[C@@H](C)C(c2cccc(F)c2)c2cccc(F)c2)c1O [Cmpd 99] | > 80 | < 80 | > 80 | > 80 | – | – |
| COc1ccnc(C(=O)N[C@@H](C)C(=O)OC(C)C2c3ccccc3-c3ccccc32)c1O (some centres unmarked) [Cmpd 101] | – | – | < 80 | – | – | – |
| C[C@H](NC(=O)c1ccccc1O)C(=O)O[C@@H](C)C(c1ccc(F)cc1)c1ccc(F)cc1 [Cmpd 112] | – | – | < 80 | < 80 | – | – |
| COc1ccnc(C(=O)N[C@@H](C)C(=O)O[C@@H](C)C(O)(c2ccc(Cl)cc2F)c2ccc(Cl)cc2F)c1O [Cmpd 119] | – | – | > 80 | < 80 | – | – |
| COc1ccnc(C(=O)N[C@@H](C)C(=O)O[C@@H](C)C(O)(c2ccccc2F)c2ccccc2F)c1O [Cmpd 122] | – | – | < 80 | < 80 | – | – |
| COc1ccnc(C(=O)N[C@@H](C)C(=O)OC(C)C2c3ccccc3-c3ccccc32)c1OC(C)=O (some centres unmarked) [Cmpd 161] | – | – | – | – | < 80 | pest or weed control at 121.5 g/ha [1, 8]: > 80% |
| COc1ccnc(C(=O)N[C@@H](C)C(=O)OC(C)C2c3ccccc3Oc3ccccc32)c1OC(C)=O (some centres unmarked) [Cmpd 162] | – | – | – | – | – | pest or weed control at 121.5 g/ha [1, 8]: < 80% |
| COc1ccnc(C(=O)N[C@@H](C)C(=O)OC(C)C2c3ccccc3Oc3ccccc32)c1OCOC(C)=O (some centres unmarked) [Cmpd 164] | – | – | – | – | < 80 | – |
| CC(=O)OCOc1ccccc1C(=O)N[C@@H](C)C(=O)O[C@@H](C)C(c1ccc(F)cc1)c1ccc(F)cc1 [Cmpd 180] | – | – | – | – | < 80 | – |
| COc1ccnc(C(=O)N[C@@H](C)C(=O)O[C@@H](C)C(c2ccc(-c3ccccc3)cc2)c2ccc(-c3ccccc3)cc2)c1OCOC(C)=O [Cmpd 181] | – | – | – | – | < 80 | pest or weed control at 121.5 g/ha [1, 8]: < 80% |
| COc1ccnc(C(=O)N[C@@H](C)C(=O)O[C@@H](C)C(O)(c2ccccc2F)c2ccccc2F)c1OCOC(C)=O [Cmpd 196] | – | – | – | – | > 80 | pest or weed control at 121.5 g/ha [1, 8]: < 80% |
| COc1ccnc(C(=O)N[C@@H](C)C(=O)O[C@@H](C)C(O)(c2ccc(Cl)c(F)c2)c2ccc(Cl)c(F)c2)c1OCOC(C)=O [Cmpd 202] | – | – | – | – | > 80 | pest or weed control at 121.5 g/ha [1, 8]: > 80% |
